Columns and labels:
ddY-strain male mice = assay: Effect of prolongation of sleeping time (hexobarbital); format: in vivo; conditions: for change in vivo at 100 mg/kg: Mus musculus, ip, 100 mg/kg intraperitoneal
Experimental: 7. Effect of prolongation of sleeping time:
Groups of mice each comprising 10 ddY-strain male mice were used. Sodium salt of hexobarbital was given intraperitoneally. Thereafter, the period of time in which righting reflex disappeared was measured. The effect was evaluated on the basis of prolongation of time of disappearance of righting reflex by the intraperitoneal administration of the compounds of the present invention as compared with control mice.

SART stress mice = assay: Inhibitory effects on increase of heart rate and elongation of QRS-time in SART stress mice; format: in vivo, mice (dd-strain male); conditions: 9th day, Average ± S.D.
Experimental: SART stress animals used in the tests described below were raised according to a method of Kita, et al. [Folia Pharmacol. Japan.: 71, 195-210 (1975)].
2. Inhibitory effects on increase of heart rate and elongation of QRS-time in stress animals:
Groups of mice each comprising 11 or 12 dd-strain male mice were divided into three groups in the same manner as above and heart rate and QRS-time were determined on the 9th day after initiation of the tests.

[1] = test system: normal mice and SART stress mice; assay: Analgesic effect, tail pressure method (Randall-Selitto's device); format: in vivo, mice (ddY-strain male); conditions: 60 minutes; for change in vivo at 100 mg/kg: Mus musculus, ip, 1 h, intraperitoneal 100 mg/kg; for Analgesic effect: intraperitoneal 50 mg/kg
Experimental: 5.1 Tail pressure method:
Randall-Selitto's device for determining analgesic effect by pressure stimulation was used. […]. The compounds of the present invention or other comparative drugs were given thereto and analgesic effect was determined. The effect was judged by measuring pressure applied 60 minutes after the intraperitoneal administration of the compounds of the present invention. The pressure thus measured was divided by a pressure before the administration. The value thus obtained was compared with that of a control group (to which 10 ml./Kg of 0.5% sodium salt of carboxymethylcellulose or 0.5% Tween 80 was given). When the compounds of the present invention were given perorally and other comparative drugs were given, an average of the pressure at 30, 60, 90 and 120 minutes after the administration was employed for evaluating the effect.

Wistar-strain male rats = assay: Antiulcerogenic effect on Shay's ulcer (operative ulcer); format: in vivo; conditions: 10 times
Experimental: 6.2. Antiulcerogenic effect on Shay's ulcer (operative ulcer):
Tests were carried out by using groups of rats each comprising 5-10 Wistar-strain male rats according to Shay method [Shay Harry; Gastroenterology,; 5, 43 (1945)]. Ulcers in the anterior stomach were classified on the following basis:
2. 1-5 small ulcers (diameter of less than 3 mm)
3. 6 or more small ulcers or one big ulcer (diameter of more than 3 mm)
4. two or more big ulcers

[2] = Acute toxicity test (LD50, Litchfield-Wilcoxon), mice; conditions: mouse, in vivo, ip, intraperitoneal
Experimental: (§1) Toxicity tests were carried out by intraperitoneal administration of the compound of the present invention to groups each comprising 10 ICR-strain mice and SD-strain rats. LD50 was calculated by the Litchfield-Wilcoxon method based on the number of death 72 hours after the administration.

[3] = test system: normal mice and SART stress mice; assay: Analgesic effect, acetic acid writhing method; format: in vivo; conditions: Mus musculus, sc, 100 mg/Kg subcutaneously
Experimental: 5.2. Acetic acid writhing method: 0.1 ml./10 g of isotonic sodium chloride solution containing 0.7% acetic acid was given intraperitoneally to groups of mice each comprising 5 normal mice and 5 SART stress mice to which SART stress had been applied for 8 days. Writhing syndromes number appeared for 15 minutes after the administration was measured. The effect was evaluated by giving 100 mg/Kg of the compounds of the present invention or DPH subcutaneously and comparing the writhing syndromes number of the mice with that of control mice.

dd-strain male mice [4] = assay: Antiulcerogenic effect on Takagi's restraint-plus-water-immersing ulcer; format: in vivo; conditions: Mus musculus, ip; 150 mg/kg intraperitoneal
Experimental: 6.1 Antiulcerogenic effect on Takagi's restraint-plus-water-immersing ulcer: Groups each comprising 8-26 dd-strain male mice were used. The tests were carried out according to a method of Takagi, et al. [Chem. Pharm. Bull.; 12, 465 (1964)]. Sum of length of diseased parts in the glandular stomach was measured and it was compared with that of control group. The compounds of the present invention or DPH was given intraperitoneally immediately before the restraint and immersion in water.

[5] = Acute toxicity test (LD50, Litchfield-Wilcoxon), rats; conditions: rat, in vivo, ip, intraperitoneal
Experimental: as §1

dd-strain male mice [6] = assay: Inhibitory effect on exploratory movements; format: in vivo; conditions: 150 mg/kg intraperitoneal, after 60 minutes
Experimental: 4.2. Inhibitory effect on exploratory movements:
Groups each comprising 16-35 dd-strain male mice were used. The compounds of the present invention were given intraperitoneally. After 60 minutes, exploratory movements for 15 minutes were measured with an exploratory movement recorder by a method of Tokyo Kyoiku University.

dd-strain male mice [7] = assay: Inhibitory effect on Tremorine-induced tremor; format: in vivo; conditions: tremorine 10 mg/Kg
Experimental: 9. Inhibitory effect on Tremorine-induced tremor:
Groups of mice each comprising 10-40 dd-strain male mice were used. Effect of the compounds of the present invention on tremor caused by tremorine was examined. The compounds of the present invention or DPH was given intraperitoneally. 45 minutes thereafter, 10 mg/Kg of tremorine was given intraperitoneally for inducing the tremor.

dd-strain male mice [8] = assay: Inhibitory effect on spontaneous motor activities (Animex method); format: in vivo; conditions: after 60 minutes
Experimental: 4.1 Inhibitory effect on spontaneous motor activities:
Groups each comprising 8-16 dd-strain male mice were used. The compounds of the present invention were given intraperitoneally. After 60 minutes, spontaneous motor activities for 15 minutes were measured by the Animex method.

[9] = test system: normal mice and SART stress mice; assay: Analgesic effect, D'Amour-Smith method; format: in vivo, mice (ddY-strain male); conditions: Mus musculus, ip; for responders at 200 mg/kg: intraperitoneal 200 mg/kg; for responders at 100 mg/kg: intraperitoneal 100 mg/kg
Experimental: 5.3. D'Amour-Smith method:
Groups each comprising 10 ddY-strain male normal mice and SART stress mice to which SART stress had been applied for 4 days were used. The root of the tail of the mouse to which black ink was applied was irradiated with infrared rays for up to 15 seconds. Time required till escape response was observed was measured. The effect was shown by the ratio of the mice in which an average value of the response time at 30, 60, 90 and 120 minutes after the administration of the compounds of the present invention or other comparative drugs was prolonged to at least 2 times as long as the time before the administration.

[10] = test system: normal rats and SART stress rats; assay: Analgesic effect, pain induced by Bradykinin; format: in vivo, rats (SD-strain male); conditions: intraperitoneal 100 mg/kg
Experimental: 5.4 Method of measuring a pain induced by Bradykinin:
Groups each comprising 4-8 SD-strain male normal rats and SART stress rats to which SART stress had been applied for 4 days were used. The tests were carried out according to the method of Deffenu et al. [Deffenu, G., Pegrassi, L., & Fumachi. B.; J. Pharm. Pharmacol.; 18, 135 (1966)] and Blane method [Blane, G. F.; J. Pharm. Pharmacol.; 19, 367 (1967)]. The effect judged was shown by ratio of the rats in which the effect was recognized according to the method of Abe, et al. [Abe, Kaneko & Takagi; Folia Pharmacol. Japon.; 67, 9-14 (1971)].

O=C1NC(=O)C(c2ccc(O)cc2)(c2cccs2)N1 (stereo not shown) [Compound 1, 5-(4-Hydroxyphenyl)-5-(2-thienyl)hydantoin]
change in vivo at 100 mg/kg (ddY-strain male mice): 36.9%
Heart rate (SART stress mice; 100 mg/kg/day): 741 ± 39 min⁻¹
QRS-time (SART stress mice; 100 mg/kg/day): 13.9 ± 0.8 1/1000 sec
change in vivo at 100 mg/kg ([1]; SART stress mice): 82.3%
change in vivo at 100 mg/kg ([1]; normal mice): 26.9%
Antiulcerogenic effect on Shay's ulcer (operative ulcer) (Wistar-strain male rats; 100 mg/kg intraperitoneal): 14.6%
Antiulcerogenic effect on Shay's ulcer (operative ulcer) (Wistar-strain male rats; 150 mg/kg intraperitoneal): 26.5%
LD50 at 72 h ([2]; female): 2000 to 3000 mg/kg
LD50 at 72 h ([2]; male): > 3000 mg/kg
inhibition in vivo at 100 mg/kg ([3]; SART stress mice): 20.9%
inhibition in vivo at 100 mg/kg ([3]; normal mice): 2.4%
inhibition in vivo at 150 mg/kg (dd-strain male mice [4]): 30.6%
LD50 at 72 h ([5]; female): > 3000 mg/kg
LD50 at 72 h ([5]; male): > 3000 mg/kg
Inhibitory effect on exploratory movements (dd-strain male mice [6]): 33.2%
Inhibitory effect on Tremorine-induced tremor (dd-strain male mice [7]; 150 mg/kg intraperitoneal): 33%
Inhibitory effect on spontaneous motor activities (dd-strain male mice [8]; 50 mg/kg intraperitoneal): 22.4%
Inhibitory effect on spontaneous motor activities (dd-strain male mice [8]; 150 mg/kg intraperitoneal): 30.7%
responders at 200 mg/kg ([9]; SART stress mice): 30%
responders at 200 mg/kg ([9]; normal mice): 20%

O=C1NC(=O)C(c2ccccc2)(c2ccc(O)cc2)N1 (stereo not shown) [Compound 7, 5-(4-Hydroxyphenyl)-5-phenylhydantoin]
Effect of prolongation of sleeping time (ddY-strain male mice; 20 mg/kg intraperitoneal): 48.0%
Effect of prolongation of sleeping time (ddY-strain male mice; 50 mg/kg intraperitoneal): 101.7%
change in vivo at 100 mg/kg (ddY-strain male mice): 112%
Heart rate (SART stress mice; 50 mg/kg/day): 690 ± 56 min⁻¹
QRS-time (SART stress mice; 50 mg/kg/day): 12.6 ± 1.5 1/1000 sec
change in vivo at 100 mg/kg ([1]; SART stress mice): 106%
change in vivo at 100 mg/kg ([1]; normal mice): 38.1%
Analgesic effect ([1]; SART stress mice): 76.5%
Analgesic effect ([1]; normal mice): 31.5%
LD50 at 72 h ([2]; female): > 5000 mg/kg
LD50 at 72 h ([2]; male): > 5000 mg/kg
inhibition in vivo at 100 mg/kg ([3]; SART stress mice): 31.3%
inhibition in vivo at 100 mg/kg ([3]; normal mice): 3.8%
Analgesic effect ([10]; SART stress rats): 66.7%
Analgesic effect ([10]; normal rats): 50%
LD50 at 72 h ([5]; female): > 5000 mg/kg
LD50 at 72 h ([5]; male): > 5000 mg/kg
Inhibitory effect on Tremorine-induced tremor (dd-strain male mice [7]; 100 mg/kg intraperitoneal): 35%
responders at 100 mg/kg ([9]; SART stress mice): 50%
responders at 100 mg/kg ([9]; normal mice): 40%
